Results on one compound are retold here after US9050294B2, “Treatment of neural diseases or conditions” (Royal Institution for the Advancement of Learning/McGill …, priority 2008, dated 2015).

Entries after “also recorded” stand apart in the source; their conditions may differ.

Data set [1] has as its system spinal cord injury (SCI) in BALB/c mice. Description: Locomotor recovery after SCI, Basso Mouse Scale (BMS) open-field test. It counts as in vivo. As for the experimental part:
(§1) Fenretinide preparation and treatment.
Locomotor recovery was evaluated in an open-field test using the Basso Mouse Scale (BMS) (Basso et al. (2006) J Neurotrauma 23: 635-659), which was specifically developed for locomotor testing after contusion injuries in mice. The BMS analysis of hindlimb movements and coordination was carried out by two independent trained assessors, and the consensus score taken. The final score is presented as mean±SEM. The BMS is a compressed scale with a maximum score of 9 as compared to the […] BBB scale for rats. Therefore small differences in the BMS can account for larger functional differences.

The subject of the next data set is microglial cells. Description: Cell viability and cell de-attachment studies on microglial cells. It counts as cell-based, mouse. To be noted: 0.625 and 1.25 μM.
The test system of data set [2] is spinal cord injury (SCI) in BALB/c mice. Kind of data set: Oxidative stress markers (MDA, nitrotyrosine) in spinal cord after SCI, ELISA. It counts as in vivo, mouse. To be noted: 3 dpi, vs control mice.
From the text: as §1

Data set [3] has the same test system. Kind of data set: AA and DHA levels in plasma and spinal cord after spinal cord contusion (lipid analysis, GC/MS). The settings on record: 5 mg/kg/day oral.
Method: Adult (8-10 weeks old) female BALB/c mice (Charles River Canada) were anaesthetized with ketamine:xylazine:acepromazine (50:5:1 mg/kg). After performing a laminectomy at the 11th thoracic vertebrae, the exposed spinal cord was contused using the Infinite™ Horizons Impactor device (Precision Scientific Instrumentation, Lexington, Ky.). Moderate injuries were made using a force of 50 kDynes and tissue displacements ranging between 400-600 μm (Ghasemlou et al. (2005) Exp. Neurol. 196: 9-17).
Fenretinide preparation and treatment. Fenretinide powder was resuspended in 95% ethanol under sterile conditions to generate a 2 μg/μL stock solution. This solution was incorporated into a daily liquid diet of Peptamen™ (Nestle Canada, Brampton, ON) at a dose of 5 mg/kg/day for oral consumption as described previously (Guilbault et al. (2008) Am J Respir Cell Mol Biol 38: 47-56). The suspension was protected from light and kept at 4° C. before treatment of the mice. One hour following surgery and for the subsequent three days, fenretinide was administered by gavage in two doses, each suspended in 300 μL of Peptamen™. Gavage was chosen as the method of drug delivery immediately after surgery due to the loss of appetite and reduced food intake during the first 48 h after injury. After day three, mice were fed the fenretinide/Peptamen™ mixture. At this point mice were separated into individual cages in order to ascertain the amount of food and drug consumed. Following day 3, the diet was administered every morning with careful monitoring of the quantity consumed by each mouse. More specifically, the daily fenretinide dose was incorporated into 12 ml of Peptamen™, which represents 80% of the daily mouse food consumption, to ensure 100% consumption. The food was given to the mice in the mid-morning. The diet for control animals was prepared and administered in the same fashion as the drug treatment; however, control animals received Peptamen™ with no fenretinide added but with an equivalent amount of ethanol.
(A) For SCI studies: in order to establish plasma kinetics, blood samples were taken from the saphenous vein at day 0, 1, 3, 7, 11, and 21 post-injury. On day 28, blood samples were obtained by intra-cardiac puncture. All blood samples were mixed with 10 μl of EDTA to prevent coagulation and centrifuged at 350×g for 7 minutes at 4° C. The plasma was then removed and lipids were extracted with chloroform-methanol (2:1 vol/vol) containing 1 mM butylated hydroxyanisole (BHA), as previously described (Folch et al. (1957) J Biol Chem 226: 497-509). The lipid fractions were dried under nitrogen and resuspended in heptane as previously described (De Sanctis (1991) Med Sci Res 19: 335-337). Phospholipids were identified by thin layer chromatography extraction. Diazomethane was used to esterify the released fatty acids and the esters were identified by GC/MS (Hewlett Packard 5880A, WCOT) capillary column (Supelco™-10, 35 m×0.5 mm, 1 μm thick) using commercial standards (Sigma-Aldrich, Oakville, ON, Canada). Total levels of DHA and AA as well as phospholipid-bound DHA, phospholipid-bound AA, malonyldialdehyde (MDA) and nitrotyrosine were assessed in both plasma and spinal cord samples.
In data set [4] the test system is SOD1^G93A transgenic mice. Kind of data set: Glial activation in L4 ventral horn (GFAP and Mac-2 immunohistochemistry). Type of data set: in vivo, mouse. The settings on record: L4, 130 days of age; p≦0.05. The protocol: (B) For ALS studies: Mice were deeply anaesthetized with a cocktail of ketamine (7.5 mg/ml) and xylazine (0.5 mg/ml) administered via intraperitoneal injection at a dose of 20 ml/kg of body weight. Animals were then sacrificed by transcardial perfusion with 4% paraformaldehyde in 0.1M phosphate buffered saline (PBS). The fourth lumbar spinal cord segment, identified by its contribution to the sciatic nerve was carefully removed, post-fixed for 1 hour in 4% paraformaldehyde solution and cryoprotected overnight in 30% sucrose in 0.1M PBS. […] Images were imported into SigmaScan™ Pro Image Measurement Software Version 5.0.0 (SPSS Inc., Chicago, Ill.) and activated astrocytes and microglia were quantified by exceeding an intensity threshold. […] Serial sections from a separate set were stained for Nissle body detection using cresyl violet staining and the number of motor neurons surviving in the ventral horn were quantified.
Immunohistochemistry was also performed on different serial sections from the same animals. […] Images of both ventral horns were captured every 300 μm and imported into SigmaScan™ Pro image quantification software. The area occupied by darkly stained cells was quantified and normalized for the total area.

`CC1=C(/C=C/C(C)=C/C=C/C(C)=C/C(=O)Nc2ccc(O)cc2)C(C)(C)CCC1` [fenretinide, all-trans-N-(4-hydroxyphenyl) retinamide]: the BMS score in data set [1] (5 mg/kg/day oral started 1 h after SCI, 28 dpi, 9-point scale, vehicle 4.6) is on record as 5.8. For the same compound, the “mean BMS subscore higher than vehicle-treated mice” value in data set [1] (5 mg/kg/day oral, 28 dpi) amounted to 2.2 points. Also, the “fine locomotor skills (BMS subscores) vs vehicle” value in data set [1] (5 mg/kg/day oral, day 7 to 28 after SCI) was “significant improvement”. In addition, the “locomotor function (BMS) vs vehicle-treated mice” value in data set [1] (5 mg/kg/day oral, significant from day 7 after SCI) was “improved locomotor function; also recorded: significantly enhanced motor skills”. The “toxic effects on the cells (cell viability, cell de-attachment)” value in the data set with microglial cells was “did not have any toxic effects”. Further, in data set [2], the “decrease of malonyldialdehyde (MDA) level in spinal cord” value was “about 2 fold” and the “decrease of nitrotyrosine level in spinal cord” value is “about 2 fold”. For the same compound, in data set [3] (started 1 h after SCI, 3 to 28 dpi), the “plasma docosahexaenoic acid (DHA) levels vs vehicle-treated mice” value was “concomitant increase; also recorded: significantly higher”. Also, in data set [3] (started 1 h after SCI, day 1 to 28 after SCI), the “plasma arachidonic acid (AA) levels vs vehicle-treated mice” value is listed as “significant reduction”. Moreover, in data set [3] (3 dpi), the “AA level in injured spinal cord vs vehicle” value was “significant decrease” and the “DHA level in injured spinal cord vs vehicle” value is recorded as “increase”. Further, in data set [4], the “GFAP staining of ventral horn: sham-treated mice greater than fenretinide-treated” value is “more than 50%” and the “Mac-2 positive stained area: control animals more than fenretinide-treated” value is on record as 60%.
